Our source for the Activity and inhibition values is ChEMBL document CHEMBL4177639, “Acacetin inhibits neuronal cell death induced by 6-hydroxydopamine in cellular Parkinson's disease model” (Bioorg Med Chem Lett, 2017).

Data set [1] deals with SH-SY5Y. The data set is described as follows: Neuroprotective activity against 6-OHDA induced toxicity in human SH-SY5Y cells assessed as reduction in intracellular ROS accumulation at 1 to 10 uM pretreated for 1 hr followed by 6-OHDA addition after 1 to 6 hrs by DCFH-DA dye based fluorescence spectrophotometric method. The data set is classed as functional, cell-based.
The test system of data set [2] is SH-SY5Y. Nature of the data set: Neuroprotective activity against 6-OHDA induced toxicity in human SH-SY5Y cells assessed as reduction in cell viability pretreated for 30 mins followed by 6-OHDA addition after 24 hrs by MTT assay. The data set is classed as functional, cell-based. A general note: Tetrazolium assays rely on reduction of a dye to a coloured formazan, in cell work by metabolically active cells.

Data set [3] concerns SH-SY5Y. The data set is described as follows: Neuroprotective activity against 6-OHDA induced toxicity in human SH-SY5Y cells assessed as reduction in LDH release pretreated for 30 mins followed by 6-OHDA addition after 24 hrs by spectrophotometric method. The class given is functional, cell-based. (Release of lactate dehydrogenase indicates damage to the cell membrane.)
Data set [4] relates to SH-SY5Y. Nature of the data set: Cytotoxicity against human SH-SY5Y cells assessed as effect on cell viability at 0.5 to 10 uM after 24 hrs by MTT assay. The data set is classed as cell-based.
For data set [5], the system named is SH-SY5Y. The data set is described as follows: Cytotoxicity against human SH-SY5Y cells assessed as reduction in LDH release at 0.5 to 10 uM after 24 hrs by spectrophotometric method. The data set is classed as cell-based.
Data set [6] concerns SH-SY5Y. The data set is described as follows: Neuroprotective activity against 6-OHDA induced toxicity in human SH-SY5Y cells assessed as reduction in nuclear necrosis at 2.5 to 10 uM pretreated for 1 hr followed by 6-OHDA addition after 24 hrs by Hoechst 33258/propidium iodide staining based fluorescence microscopic analysis. The class given is functional, cell-based.
Data set [7] has as its system SH-SY5Y. Nature of the data set: Neuroprotective activity against 6-OHDA induced toxicity in human SH-SY5Y cells assessed as reduction in nuclear condensation at 2.5 to 10 uM pretreated for 1 hr followed by 6-OHDA addition after 24 hrs by Hoechst 33258/propidium iodide staining based fluorescence microscopic analysis. The data set is classed as functional, cell-based.

For data set [8], the system named is SH-SY5Y. Nature of the data set: Neuroprotective activity against 6-OHDA induced toxicity in human SH-SY5Y cells assessed as reduction in cell shrinkage at 2.5 to 10 uM pretreated for 1 hr followed by 6-OHDA addition after 24 hrs by Hoechst 33258/propidium iodide staining based fluorescence microscopic analysis. The data set is classed as functional.
In data set [9] the test system is SH-SY5Y. Nature of the data set: Neuroprotective activity against 6-OHDA induced toxicity in human SH-SY5Y cells assessed as reduction in nuclear fragmentation at 2.5 to 10 uM pretreated for 1 hr followed by 6-OHDA addition after 24 hrs by Hoechst 33258/propidium iodide staining based fluorescence microscopic analysis. The class given is functional, cell-based.

In data set [10] the test system is SH-SY5Y. The data set is described as follows: Neuroprotective activity against 6-OHDA induced toxicity in human SH-SY5Y cells assessed as reduction in mitochondrial membrane potential loss at 1 to 10 uM pretreated for 1 hr followed by 6-OHDA addition after 1 to 6 hrs by rhodamine123 dye based fluorescence microscopic analysis. The class given is functional, cell-based.

For data set [11], the target named is c-Jun N-terminal kinase, JNK (Homo sapiens) (UniProt P45983+P53779+P45984). The data set is described as follows: Inhibition of 6-OHDA induced JNK phosphorylation in human SH-SY5Y cells at 2.5 to 10 uM pretreated for 1 hr followed by 6-OHDA addition after 1 hr by Western blot analysis. The data set is classed as cell-based.
In data set [12] the target is RAC-alpha serine/threonine-protein kinase (Homo sapiens) (UniProt P31749). Nature of the data set: Inhibition of 6-OHDA induced AKT phosphorylation in human SH-SY5Y cells at 2.5 to 10 uM pretreated for 1 hr followed by 6-OHDA addition after 1 hr by Western blot analysis. The class given is cell-based. For orientation: In western blotting, separated proteins are transferred to a membrane and probed.

For data set [13], the target named is Glycogen synthase kinase-3 beta (Homo sapiens) (UniProt P49841). Nature of the data set: Inhibition of 6-OHDA induced GSK3beta phosphorylation in human SH-SY5Y cells at 2.5 to 10 uM pretreated for 1 hr followed by 6-OHDA addition after 1 hr by Western blot analysis. The class given is cell-based.
For data set [14], the target named is Mitogen-activated protein kinase; ERK1/ERK2 (Homo sapiens) (UniProt P27361+P28482). Nature of the data set: Inhibition of 6-OHDA induced ERK1/2 phosphorylation in human SH-SY5Y cells at 2.5 to 10 uM pretreated for 1 hr followed by 6-OHDA addition after 1 hr by Western blot analysis. The data set is classed as cell-based.
Data set [15] deals with SH-SY5Y. Nature of the data set: Neuroprotective activity against 6-OHDA induced apoptosis in human SH-SY5Y cells assessed as reduction in Bax expression pretreated for 1 hr followed by 6-OHDA addition after 6 to 24 hrs by Western blot analysis. The data set is classed as functional, cell-based.
Data set [16] has as its system SH-SY5Y. The data set is described as follows: Neuroprotective activity against 6-OHDA induced apoptosis in human SH-SY5Y cells assessed as increase in Bcl-2 expression pretreated for 1 hr followed by 6-OHDA addition after 6 to 24 hrs by Western blot analysis. The data set is classed as functional, cell-based.
Data set [17] concerns SH-SY5Y. Nature of the data set: Neuroprotective activity against 6-OHDA induced apoptosis in human SH-SY5Y cells assessed as reduction in cytochrome-c level pretreated for 1 hr followed by 6-OHDA addition after 6 to 24 hrs by Western blot analysis. The class given is functional, cell-based.
Data set [18] has as its system SH-SY5Y. The data set is described as follows: Neuroprotective activity against 6-OHDA induced apoptosis in human SH-SY5Y cells assessed as reduction in cleaved caspase-9 level at 2.5 to 10 uM pretreated for 1 hr followed by 6-OHDA addition after 6 to 24 hrs by Western blot analysis. The data set is classed as functional, cell-based.
Data set [19] relates to SH-SY5Y. The data set is described as follows: Neuroprotective activity against 6-OHDA induced apoptosis in human SH-SY5Y cells assessed as reduction in cleaved caspase-3 level at 2.5 to 10 uM pretreated for 1 hr followed by 6-OHDA addition after 6 to 24 hrs by Western blot analysis. The class given is functional, cell-based.
Data set [20] deals with SH-SY5Y. Nature of the data set: Neuroprotective activity against 6-OHDA induced apoptosis in human SH-SY5Y cells assessed as reduction in cleaved PARP level at 2.5 to 10 uM pretreated for 1 hr followed by 6-OHDA addition after 6 to 24 hrs by Western blot analysis. The class given is functional, cell-based.
Data set [21] has as its target MAP kinase p38 (Homo sapiens) (UniProt O15264+Q15759+Q16539+P53778). As to conditions: SH-SY5Y, 2.5 to 10 uM.
Description: Inhibition of 6-OHDA induced p38 phosphorylation in human SH-SY5Y cells at 2.5 to 10 uM pretreated for 1 hr followed by 6-OHDA addition after 1 hr by Western blot analysis

Active and inactive are the calls of the source. No cut-off for these calls is given here.

Mitogen-activated protein kinase; ERK1/ERK2 (Homo sapiens), sequence (P27361 whole entry, looked up): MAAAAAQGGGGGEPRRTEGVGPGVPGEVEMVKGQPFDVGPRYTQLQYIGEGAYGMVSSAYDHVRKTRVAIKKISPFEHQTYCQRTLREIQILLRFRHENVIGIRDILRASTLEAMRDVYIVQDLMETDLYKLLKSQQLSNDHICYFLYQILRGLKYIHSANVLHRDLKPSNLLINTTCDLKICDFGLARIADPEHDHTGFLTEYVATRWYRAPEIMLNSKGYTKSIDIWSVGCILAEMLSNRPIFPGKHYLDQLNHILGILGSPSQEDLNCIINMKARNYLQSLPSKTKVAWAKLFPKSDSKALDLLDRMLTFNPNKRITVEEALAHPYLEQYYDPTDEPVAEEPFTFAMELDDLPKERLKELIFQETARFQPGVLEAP
Mitogen-activated protein kinase; ERK1/ERK2 (Homo sapiens), sequence (P28482 whole entry, looked up): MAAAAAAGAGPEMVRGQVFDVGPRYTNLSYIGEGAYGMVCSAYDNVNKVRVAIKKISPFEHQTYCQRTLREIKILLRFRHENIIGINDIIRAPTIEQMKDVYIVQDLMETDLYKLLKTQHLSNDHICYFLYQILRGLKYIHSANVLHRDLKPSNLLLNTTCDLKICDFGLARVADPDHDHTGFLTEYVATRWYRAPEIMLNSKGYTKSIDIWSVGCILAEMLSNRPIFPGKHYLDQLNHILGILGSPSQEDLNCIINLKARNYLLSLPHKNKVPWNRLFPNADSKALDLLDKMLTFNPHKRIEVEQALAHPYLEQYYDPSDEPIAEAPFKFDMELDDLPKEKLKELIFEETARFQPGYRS
Glycogen synthase kinase-3 beta (Homo sapiens), sequence (P49841 whole entry, looked up): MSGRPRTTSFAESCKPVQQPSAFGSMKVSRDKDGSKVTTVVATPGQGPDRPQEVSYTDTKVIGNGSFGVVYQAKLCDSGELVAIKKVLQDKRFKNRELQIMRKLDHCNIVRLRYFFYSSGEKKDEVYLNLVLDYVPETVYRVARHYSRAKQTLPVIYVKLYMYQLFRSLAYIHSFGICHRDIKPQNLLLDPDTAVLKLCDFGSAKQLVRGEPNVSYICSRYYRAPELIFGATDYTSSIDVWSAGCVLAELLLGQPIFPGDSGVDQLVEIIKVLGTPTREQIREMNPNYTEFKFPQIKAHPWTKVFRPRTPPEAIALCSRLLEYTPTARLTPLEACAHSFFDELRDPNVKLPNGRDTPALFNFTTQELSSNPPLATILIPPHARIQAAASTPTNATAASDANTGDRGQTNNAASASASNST
RAC-alpha serine/threonine-protein kinase (Homo sapiens), sequence (P31749 whole entry): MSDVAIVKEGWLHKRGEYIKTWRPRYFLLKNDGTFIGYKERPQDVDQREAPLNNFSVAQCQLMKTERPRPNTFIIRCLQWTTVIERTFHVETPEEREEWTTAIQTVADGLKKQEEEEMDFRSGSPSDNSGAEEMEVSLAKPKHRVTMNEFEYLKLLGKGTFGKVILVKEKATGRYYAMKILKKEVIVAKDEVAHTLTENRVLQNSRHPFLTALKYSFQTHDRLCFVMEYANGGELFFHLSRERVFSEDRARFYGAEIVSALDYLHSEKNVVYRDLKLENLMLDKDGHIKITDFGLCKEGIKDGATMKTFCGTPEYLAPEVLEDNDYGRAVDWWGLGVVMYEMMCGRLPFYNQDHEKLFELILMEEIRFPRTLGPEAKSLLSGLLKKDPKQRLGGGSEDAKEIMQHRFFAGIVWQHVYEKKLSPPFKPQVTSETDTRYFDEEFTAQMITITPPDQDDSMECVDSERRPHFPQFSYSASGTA

In the case of `COc1ccc(-c2cc(=O)c3c(O)cc(O)cc3o2)cc1` [ACACETIN], the result in [1], in data set [6], in [7], in data set [8], in data set [9] and in [10] was Active. Moreover, the result in data set [18], in [19] and in [20] was Active. Besides, the Activity entry in data set [2] is “Dose-dependent effect”; in data set [3], “Dose-dependent effect”; in data set [4], “Non-Toxic”; in data set [5] it was “Non-Toxic”; in [15] it was “Dose-dependent effect”; in data set [16], “Dose-dependent effect”. Besides, the Activity result in [17] is “Dose-dependent effect”. Besides, the inhibition entry in data set [11], in [12], in [13] and in data set [21] was “Active” in each case. For the same molecule, the inhibition result in [14] is “inactive”.
